Data on two substances can be found in patent US8257928B2, “Methods for predicting and treating tumors resistant to drug, immunotherapy and radiation” (The Regents of the University of California, priority 2008, dated 2012).

The test system of this data set is HMT3522 T4-2 cells. The data set can be described thus: Percent cell death in 2D monolayer, 3D rBM and reverted cultures (active caspase 3). Format: cell-based, human. The source says:
The oligonucleotides specifying the small hairpin RNAs (shRNAs) were subcloned from pSilencer-H1 into pLZRS-MFG-CMV-Neo-U6, a recombinant self-inactivating retroviral vector constructed from the backbone of an MFG provirus (Proc. Natl. Acad. Sci. USA 85:6460-6464 (1988); Proc. Natl. Acad. Sci. USA 90:3539-3543 (1993)), which directs the expression of shRNA under the control of the U6 promoter. Amphotropic retrovirus was produced in Phoenix ampho cells (provided by Professor G. Nolan, Stanford Medical Center) with packaging vectors pCgp and pVSVG to boost viral titer. S1 cells or T4-2 cells, maintained in monolayer cultures, were then spin infected with retrovirus carrying the various RNAi constructs and infected cell populations were selected using 300 μg/ml G418 (Invitrogen).
Non-neoplastic HMT3522 S1 breast epithelial cells or neoplastic HMT3522 T4-2 cells were embedded (8.5×10^5/ml) within reconstituted basement membrane (rBM) gel (Matrigcl, BD Biosciences) in chamber slides (Lab-Tek chamber slides, Nunc) according to the procedures described in U.S. Pat. No. 6,123,941 and Nat. Method. 4:359-365 (2007). […] Phenotypic reversion of HMT3522 T4-2 cells in three dimensional rBM cultures was performed using an epidermal growth factor receptor (EGFR) specific tyrosine kinase inhibitor tyrphostin AG 1478 (100 nM) (Calbiochem), as previously described (Proc. Natl. Acad. Sci. USA 95:14821-14826 (1998))
Apoptotic cell death of the breast epithelial cells cultured in three dimensional rBM was initiated by treatment with recombinant, purified human tumor necrosis factor-related apoptosis-inducing ligand (TRAIL) peptides (BIOMOL) or Paclitaxel (Sigma-Aldrich) as described (Cancer Cell 2:205-216 (2002)). DNA damage-induced cell death was initiated by ionizing radiation (IR) using a Mark I Cesium 137 irradiator (JL Shepherd & Associates).
Percent cell death induced by TRAIL or Paclitaxel was quantified using detection of active caspase 3 (Cell Signaling) by indirect immunofluorescence as described (J. Cell Biol. 163:1397-1407 (2003)). Percent cell death induced by IR was quantified using Live/Dead Viability/Cytotoxicity Assay (Molecular Probes). For both methods, cells were counterstained with 4′,6-diamidino-2-phenylindole (DAPI) to label cell nuclei present at different focal planes in the 3D architectures. Percent death was calculated as cells positive for ethidium bromide or active caspase 3 expressed as a percentage of the total number of cells scored by the nuclear staining.
Percent cell death induced by TRAIL was quantified using detection of active caspasc 3 as described in Example 4.

In the case of “N-CoR2 (K449A): mutant N-CoR2 with lysine 449 mutated to alanine; binds HDAC3 but does not activate it”, under “T4-2 cells in rBM gel 5 days, vs vector control cells”, the “sensitivity to death induction by TRAIL of cells transduced with the mutant” value is recorded as “hypersensitive to death induction to an extent even greater than that of the vector control cells”.

Consider “HDAC3 shRNA: retrovirally expressed small hairpin RNA, siRNA sequence 5′-AAGATGCTGAACCATGCACCT-3′ (SEQ ID NO:2) for HDAC3”, for which the “sensitivity to the TRAIL treatment of N-CoR2-overexpressed cells” value (HDAC3 simultaneously downregulated by retrovirus-mediated RNAi) is recorded as “restored to an extent comparable to that of vehicle-treated cells”.
